Test results taken from paper PMC7560238, “Development of a Thymoquinone Polymeric Anticancer Nanomedicine through Optimization of Polymer Molecular Weight and Nanoparticle Architecture” (Pharmaceutics, 2020).
Where two headings read alike, the source gives them in different places.

How the values were obtained:
MCF-7 = assay: Antiproliferative activity, SRB assay, MCF-7; format: cell-based, human
Experimental: (§1) Antiproliferative activity was evaluated in various human cancer cell lines (MCF-7, PANC-1, and Caco-2) as well as a normal cell line (human dermal fibroblasts). All cell lines were obtained from the American Type Culture Collection (ATCC, Manassas, VA, USA). MCF-7, PANC-1, and Caco-2 cells were cultured in high glucose Dulbecco’s modified Eagle medium (DMEM; Eurobio Scientific, Les Ulis, France). Fibroblasts were cultured in Iscove’s modified Dulbecco’s medium (IMDM; Eurobio Scientific, Les Ulis, France). All media were supplemented with 10% fetal bovine serum, 1% L-glutamine, and 1% penicillin/streptomycin. The cell lines were maintained at 37 °C in a 5% CO2 atmosphere with 95% humidity. For the cytotoxicity experiments, cells were cultured in 96-well plates at density of 6 × 10^3 cells per well to ensure exponential growth throughout the experimental period and to ensure a linear relationship between absorbance and cell number when analyzed by the sulforhodamine B (SRB) assay. […] One hundred microliters of 10 mM Tris base solution was then added to each well, and the absorbance was recorded on a microplate reader (BioTek Instruments, Winooski, VT, USA) at 570 nm. Results were expressed as % cell viability compared to the control (untreated cells). […]

Caco-2 = assay: Antiproliferative activity, SRB assay, Caco-2; format: cell-based, human
Experimental: as §1

[1] = Pilot pharmacokinetic study after oral administration; format: in vivo; conditions: male, Balb/c, mouse, mice, oral gavage, 6 mg/kg TQ, plasma
Experimental: Thirty male Balb/c mice (8–10 weeks old) were housed in plastic cages in an air-conditioned room with free access to food and water and were fasted overnight prior to the experiment. On the day of the experiment, animals were divided into two groups and each group was administered a single dose of 6 mg/kg TQ either as suspension in ultrapure water or in the form of TQ NPs (F2-NC) via oral gavage. At 1, 2, 4, 6, and 24 h post-administration, three animals from each group were randomly selected and euthanized by diethyl ether, and blood (~1 mL) was collected from the jugular vein into heparinized plastic tubes. Blood samples were left to sit for 45 min at room temperature then centrifuged at 5500 rpm for 30 min at room temperature. Approximately 0.5 mL of plasma was collected into microtubes, and plasma samples were stored at −80 °C until further analysis. The animal protocol for this work was approved by the Animal Care and Use Committee of Al-Zaytoonah University of Jordan (decision no. 1/5/2019–2020). All work was conducted in accordance with the Helsinki guidelines for animal research and all applicable Jordanian governmental rules and guidelines.
The system consisted of a Shimadzu LCMS-8030 quadrupole mass spectrometer (Kyoto, Japan) equipped with an electrospray ionization (ESI) source, and a Shimadzu Prominence 30A Ultra-Fast Liquid Chromatography system composed of a system controller, degasser, binary pump and auto-sampler. Samples were eluted on a C8 column (5 μm, 50 × 2.1 mm) coupled with a guard column (5 μm, 10 × 2.1 mm) at 20 °C. The isocratic mobile phase consisted of acetonitrile (ACN) and 0.2% formic acid (50:50, v/v) at a flow rate of 0.2 mL min^−1 and an injection volume of 20 μL. TQ samples were ionized by the ESI source in negative ion mode ([…] spray voltage). The dwell time was set to 50 ms and the probe temperature was 400 °C. Quantification was performed using multiple reaction monitoring (MRM) of the transitions at m/z 164.0→134.1.
TQ was dissolved in ACN to make a stock solution at 1 mg mL^−1. TQ working standard solutions were prepared by serial dilutions of the stock solution in the mobile phase. Calibration curve samples were prepared by spiking the appropriate TQ working standard solutions into blank plasma obtained from untreated mice to achieve concentrations from 2 to 1000 ng mL^−1.
To 100 μL of plasma (spiked with calibration curve samples or plasma extracted from treated mice), ethyl acetate (1 mL) was added and vortex mixed for 30 s. […] Samples were then injected into the LC-MS/MS system to quantify the plasma concentration of TQ at each time point. […] Plasma t1/2 was determined by fitting the elimination phase of the plots to the first-order model.

PANC-1 = assay: Antiproliferative activity, SRB assay, PANC-1; format: cell-based, human
Experimental: as §1

human dermal fibroblasts = assay: Antiproliferative activity, SRB assay, normal cell line; format: cell-based; conditions: Fibroblast, 72 h
Experimental: as §1

[2] = parameters: method as in earlier work; conditions: cirsiliol from a formulation similar to F2-NC, cited from earlier work

Row | Structure (SMILES) | IC50 (MCF-7; Homo sapiens, MCF7, MCF-7, 72 h, SRB assay) [µM] | SI (selectivity index) (MCF-7; IC50 in fibroblasts divided by IC50 in MCF-7) | IC50 (Caco-2; Homo sapiens, Caco-2, 72 h, SRB assay) [µM] | SI (selectivity index) (Caco-2; IC50 in fibroblasts divided by IC50 in Caco-2) | AUC(0-inf) [1] [ng·h/mL] | Cmax [1] [ng/mL] | Tmax [1] [h] | half-life ([1]; elimination phase first-order fit) [h] | IC50 (PANC-1; Homo sapiens, PANC-1, 72 h, SRB assay) [µM] | SI (selectivity index) (PANC-1; IC50 in fibroblasts divided by IC50 in PANC-1) | IC50 (human dermal fibroblasts) [µM] | cumulative release ([2]; after 96 h) | cumulative release ([2]; within the first 48 h)
1 | CC1=CC(=O)C(C(C)C)=CC1=O [TQ, 2-isopropyl-5-methylbenzo-1,4-quinone] | 20.5 ± 3.7 | 2.9 | 30.4 ± 0.5 | 1.9 | 4670 ± 508 | 388 ± 41.5 | 4 | 5 | 8.8 ± 2.2 | 6.7 | 58.9 ± 10.3 | – | –
2 | COc1cc2oc(-c3ccc(O)c(O)c3)cc(=O)c2c(O)c1OC [cirsiliol] | – | – | – | – | – | – | – | – | – | – | – | ~ 40% | ~ 20%
